The text below walks through data of US10377770B2 (Novartis AG, priority 2015, dated 2019).

For the test, the target named is C-Raf FL (full length CRAF with Y340E and Y341E activating mutations, co-expressed with h14-3-3 zeta) (Homo sapiens (Human), UniProt P04049, Y340E/Y341E). Kind of test: In vitro Raf activity determination, AlphaScreen p-MEK readout, c-Raf (C-Raf FL). It is filed as biochemical. Particulars: c-Raf approximately 4 nM, ATP 1 μM, pre-incubation 60 minutes, reaction 1 hour. In a few lines:
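Full-length C-Raf (~4 nM) pre-incubated 60 min at room temperature with compound and kinase-dead biotinylated MEK1 (~10 nM) in Tris pH 7.5, 15 mM MgCl2, BSA, DTT. Reaction started with 1 μM ATP and run 1 h at room temperature. Phospho-MEK detected by AlphaScreen with anti-p-MEK antibody.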
(In general: Alpha assays give light when donor and acceptor beads are brought close together.)

A value given as a limit tells only on which side of the number the result lay.

Chain of C-Raf FL (full length CRAF with Y340E and Y341E activating mutations, co-expressed with h14-3-3 zeta) (P04049 whole entry Y340E/Y341E): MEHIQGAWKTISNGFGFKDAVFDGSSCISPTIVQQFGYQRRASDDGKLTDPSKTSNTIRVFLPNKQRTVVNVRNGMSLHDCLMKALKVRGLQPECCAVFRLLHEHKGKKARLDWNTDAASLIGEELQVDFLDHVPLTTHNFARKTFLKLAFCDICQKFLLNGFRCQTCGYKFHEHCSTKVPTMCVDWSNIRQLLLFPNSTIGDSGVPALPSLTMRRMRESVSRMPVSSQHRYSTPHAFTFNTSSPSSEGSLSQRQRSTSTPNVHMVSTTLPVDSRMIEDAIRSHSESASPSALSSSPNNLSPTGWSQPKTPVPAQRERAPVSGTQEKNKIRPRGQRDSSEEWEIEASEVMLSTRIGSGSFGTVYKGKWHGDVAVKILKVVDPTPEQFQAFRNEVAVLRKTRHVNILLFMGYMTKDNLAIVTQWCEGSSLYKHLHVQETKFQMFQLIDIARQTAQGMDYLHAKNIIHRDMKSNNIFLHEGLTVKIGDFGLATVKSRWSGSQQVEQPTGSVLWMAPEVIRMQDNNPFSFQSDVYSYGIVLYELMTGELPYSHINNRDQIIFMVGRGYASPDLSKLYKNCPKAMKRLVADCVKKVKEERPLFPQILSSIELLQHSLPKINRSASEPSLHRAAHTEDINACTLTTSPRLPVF
Chain of C-Raf FL (full length CRAF with Y340E and Y341E activating mutations, co-expressed with h14-3-3 zeta) (P63104 whole entry partner): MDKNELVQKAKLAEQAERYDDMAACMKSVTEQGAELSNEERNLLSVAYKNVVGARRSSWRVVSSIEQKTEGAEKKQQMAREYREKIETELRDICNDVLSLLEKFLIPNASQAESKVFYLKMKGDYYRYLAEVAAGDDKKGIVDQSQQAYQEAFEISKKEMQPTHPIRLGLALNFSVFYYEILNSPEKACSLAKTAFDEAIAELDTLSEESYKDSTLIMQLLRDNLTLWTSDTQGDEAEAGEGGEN

Molecule `CCN1C(=O)[C@@H]2[C@H]3COC[C@H]3[C@@H]2c2cc(-c3cc(NC(=O)c4ccnc(C(C)(F)F)c4)ccc3C)cnc21` [Example 269, 2-(1,1-difluoroethyl)-N-(3-((6aS, 6bS, 9aS, 9bS)-5-ethyl-6-oxo-5,6,6a,6b,7,9,9a,9b-octahydrofuro[3′,4′: 3,4]cyclobuta[1,2-c][1,8]naphthyridin-2-yl)-4-methylphenyl) isonicotinamide] showed an IC50 of 300 pM.
In turn, `CCN1C(=O)N2COCCC2(C)c2cc(-c3cc(NC(=O)c4cccc(C(F)(F)F)c4)cnc3C)ccc21` (stereo not shown) [Example 245, N-(5-(7-ethyl-11b-methyl-6-oxo-1,2,4,6,7,11b-hexahydro-[1,3]oxazino[3,4-c]quinazolin-10-yl)-6-methylpyridin-3-yl)-3-(trifluoromethyl) benzamide] registered a 50% inhibitory concentration (IC50) of 200 pM.
`Cc1ccc(NC(=O)c2ccnc(C(F)(F)F)c2)cc1-c1cnc2c(c1)N1CCOC[C@H]1C[C@@]2(C)O` (racemic) [Example 39, (rac)-(trans)-N-(3-(6-hydroxy-6-methyl-1,2,4,4a,5,6-hexahydro-[1,4]oxazino[4,3-a][1,5]naphthyridin-9-yl)-4-methylphenyl)-2-(trifluoromethyl)isonicotinamide] showed an IC50 of 2.3 pM.
Molecule `Cc1ccc(NC(=O)c2ccnc(C(C)(C)C#N)c2)cc1-c1cnc2c(c1)N1CCOCC1C1(COC1)C2` (racemic) [Example 157, rac-2-(2-cyanopropan-2-yl)-N-(4-methyl-3-(2,4,4a,6-tetrahydro-1H-spiro[[1,4]oxazino[4,3-a][1,5]naphthyridine-5,3′-oxetan]-9-yl)phenyl)isonicotinamide] returned a half-maximal inhibitory concentration (IC50) of 160 pM.
Turning to `CC(=O)NC1CC2COCCN2c2cc(-c3cc(NC(=O)c4ccnc(C(F)(F)F)c4)ccc3C)ccc21` (racemic) [Example 29, N-(3-(6-acetamido-1,2,4,4a,5,6-hexahydro-[1,4]oxazino[4,3-a]quinolin-9-yl)-4-methylphenyl)-2-(trifluoromethyl)isonicotinamide], the 50% inhibitory concentration (IC50) stood at 170 pM.
`Cc1ncc(NC(=O)c2cccc(C(F)(F)F)c2)cc1-c1cnc2c(c1)N1CCOC[C@@H]1[C@H](CO)C2` (racemic) [Example 119, rac-trans-N-(5-(5-(Hydroxymethyl)-1,2,4,4a,5,6-hexahydro-[1,4]oxazino[4,3-a][1,5]naphthyridin-9-yl)-6-methylpyridin-3-yl)-3-(trifluoromethyl)benzamide]: the IC50 is 10 pM.
Consider `Cc1ncc(NC(=O)c2cccc(C(F)(F)F)c2)cc1-c1ccc2c(c1)N1CCOCC1C(CO)(CO)C2` (racemic) [Example 51, (rac)-N-(5-(5,5-bis(hydroxymethyl)-1,2,4,4a,5,6-hexahydro-[1,4]oxazino[4,3-a]quinolin-9-yl)-6-methylpyridin-3-yl)-3-(trifluoromethyl)benzamide], for which the half-inhibitory concentration (IC50) amounted to 36 pM.
To `Cc1ccc(NC(=O)c2ccnc(C(C)(F)F)c2)cc1-c1cc2n(c(=O)c1)CC[C@@H]1COCCN21` [Example 413, (R)-2-(1,1-difluoroethyl)-N-(4-methyl-3-(8-oxo-1,2,4,4a,5,6-hexahydro-8H-pyrido[2′,1′:2,3]pyrimido[6,1-c][1,4]oxazin-10-yl)phenyl)isonicotinamide] belongs 200 pM.
To `Cc1ccc(NC(=O)c2ccnc(C(C)(F)F)c2)cc1-c1ccc2c(c1)N1CCOCC1C(F)(CO)C2` (racemic) [Example 78, (rac)-2-(1,1-difluoroethyl)-N-(3-(5-fluoro-5-(hydroxymethyl)-1,2,4,4a,5,6-hexahydro-[1,4]oxazino[4,3-a]quinolin-9-yl)-4-methylphenyl)isonicotinamide] belongs 20 pM; to `Cc1ncc(NC(=O)c2cccc(C(F)(F)F)c2)cc1-c1ccc2c(c1)N1CCOCC1C(CS(C)(=O)=O)C2` (racemic) [Example 364, (rac)-N-(6-methyl-5-(5-((methylsulfonyl)methyl)-1,2,4,4a,5,6-hexahydro-[1,4]oxazino[4,3-a]quinolin-9-yl)pyridin-3-yl)-3-(trifluoromethyl)benzamide], 800 pM.
To `Cc1ccc(NC(=O)c2ccnc(C(F)(F)F)c2)cc1-c1cnc2c(c1)N1CCOC[C@H]1C[C@H]2O` [Example 102, N-(3-((4aR,6R)-6-Hydroxy-1,2,4,4a,5,6-hexahydro-[1,4]oxazino[4,3-a][1,5]naphthyridin-9-yl)-4-methylphenyl)-2-(trifluoromethyl)isonicotinamide] belongs under 1.7 pM.
As for `CCN1C(=O)OC2COCCC2c2cc(-c3cc(NC(=O)c4cccc(C(F)(F)F)c4)cnc3C)cnc21` [Example 296, N-(5-((4aS,11bR- cis)-7-ethyl-6-oxo-2,4,4a,6,7,11b-hexahydro-1H-pyrano[4,3-f]pyrido[2,3-d][1,3]oxazepin-10-yl)-6-methylpyridin-3-yl)-3-(trifluoromethyl) benzamide], the IC50 came out at 1800 pM.
The result for `Cc1ncc(NC(=O)c2ccnc(C(C)(C)C)c2)cc1-c1ccc2c(c1)N1CCOC[C@H]1[C@](F)(CF)C2` [Example 468, 2-(tert-butyl)-N-(5-((4aS,5S)-5-fluoro-5-(fluoromethyl)-1,2,4,4a,5,6-hexahydro-[1,4]oxazino[4,3-a]quinolin-9-yl)-6-methylpyridin-3-yl)isonicotinamide] reads 8000 pM; that for `CCN1C(=O)[C@H]2[C@@H]3COC[C@@H]3[C@H]2c2cc(-c3cc(NC(=O)c4ccnc(C(C)(F)F)c4)ccc3C)cnc21` [Example 271, 2-(1,1-difluoroethyl)-N-(3-((6aR, 6bR, 9aR, 9bR)-5-ethyl-6-oxo-5,6,6a,6b,7,9,9a,9b-octahydrofuro[3′,4′: 3,4]cyclobuta[1,2-c][1,8]naphthyridin 2-yl)-4-methylphenyl) isonicotinamide], 200 pM; that for `Cc1ccc(NC(=O)c2ccnc(C(C)(C)F)c2)cc1-c1ccc2c(c1)N1CCOCC1CC2O` (racemic) [Example 17, (rac)-2-(2-fluoropropan-2-yl)-N-(3-(6-hydroxy-1,2,4,4a,5,6-hexahydro-[1,4]oxazino[4,3-a]quinolin-9-yl)-4-methylphenyl)isonicotinamide], 46 pM.
To `Cc1ccc(NC(=O)c2ccnc(C(F)(F)F)c2)cc1-c1cc(F)c2c(c1)N1CCOC[C@H]1[C@@](F)(CO)C2` [Example 429, N-(3-((4aS,5R)-5,7-difluoro-5-(hydroxymethyl)-1,2,4,4a,5,6-hexahydro-[1,4]oxazino[4,3-a]quinolin-9-yl)-4-methylphenyl)-2-(trifluoromethyl)isonicotinamide] belongs 800 pM; to `CCN1C(=O)C[C@@H]2COCCN2c2cc(-c3cc(NC(=O)c4ccnc(C(C)(F)F)c4)ccc3C)cnc21` [Example 126, (R)-2-(1,1-Difluoroethyl)-N-(3-(7-ethyl-6-oxo-1,2,4a,5,6,7-hexahydro-4H-[1,4]oxazino[4,3-d]pyrido[2,3-b][1,4]diazepin-10-yl)-4-methylphenyl)isonicotinamide], 16 pM.
To `Cc1ccc(NC(=O)c2cnnc(C(F)(F)F)c2)cc1-c1ccc2c(c1)N1CCOC[C@H]1[C@](F)(CF)C2` [Example 475, N-(3-((4aS,5S)-5-fluoro-5-(fluoromethyl)-1,2,4,4a,5,6-hexahydro-[1,4]oxazino[4,3-a]quinolin-9-yl)-4-methylphenyl)-6-(trifluorometh-yl)pyridazine-4-carboxamide] belongs 400 pM.
For `CCN1C(=O)OC2COCCC2c2cc(-c3cc(NC(=O)c4ccnc(C(C)(F)F)c4)ccc3C)cnc21` [Example 302, 2-(1,1-difluoroethyl)-N-(3-((4aS,11bR-cis)-7-ethyl-6-oxo-2,4,4a,6,7,11b-hexahydro-1H-pyrano[4,3-f]pyrido[2,3-d][1,3]oxazepin-10-yl)-methylphenyl) isonicotinamide], half-maximal inhibition (IC50) required 100 pM.
The result for `Cc1ncc(NC(=O)c2cccc(C(F)(F)F)c2)cc1-c1cnc2c(c1)N1CCOC[C@H]1C[C@@H]2O` (racemic) [Example 104, rac-cis-N-(5-(6-Hydroxy-1,2,4,4a,5,6-hexahydro-[1,4]oxazino[4,3-a][1,5]naphthyridin-9-yl)-6-methylpyridin-3-yl)-3-(trifluoromethyl)benzamide] reads 44 pM; that for `Cc1ccc(NC(=O)c2ccnc(C(C)(F)F)c2)cc1-c1cnc2c(c1)N1CCOC[C@@H]1[C@H](CO)C2` (racemic) [Example 116, rac-trans-2-(1,1-Difluoroethyl)-N-(3-(5-(hydroxymethyl)-1,2,4,4a,5,6-hexahydro-[1,4]oxazino[4,3-a][1,5]naphthyridin-9-yl)-4-methylphenyl)isonicotinamide], under 1.7 pM.
As to `CCN1C(=O)OC2COCCC2c2cc(-c3cc(NC(=O)c4cccc(C(F)(F)F)c4)cnc3C)cnc21` [Example 298, N-(5-((4aS,11bR- cis)-7-ethyl-6-oxo-2,4,4a,6,7,11b-hexahydro-1H-pyrano[4,3-f]pyrido[2,3-d][1,3]oxazepin-10-yl)-6-methylpyridin-3-yl)-3-(trifluoromethyl) benzamide], the IC50 came out at 300 pM.
The result for `Cc1ccc(NC(=O)c2ccnc(C(F)(F)F)c2)cc1-c1cnc2c(c1)N1CCOC[C@H]1[C@@H](C(C)(C)O)C2` [Example 451, N-(3-((4aR,5S)-5-(2-hydroxypropan-2-yl)-1,2,4,4a,5,6-hexahydro-[1,4]oxazino[4,3-a][1,5]naphthyridin-9-yl)-4-methylphenyl)-2-(trifluoromethyl) isonicotinamide] reads 600 pM.
To `Cc1ccc(NC(=O)c2ccnc(C(C)(F)F)c2)cc1-c1ccc2c(c1)N1CCOCC1CC2O` (racemic) [Example 16, (rac)-2-(1,1-difluoroethyl)-N-(3-(6-hydroxy-1,2,4,4a,5,6-hexahydro-[1,4]oxazino[4,3-a]quinolin-9-yl)-4-methylphenyl)isonicotinamide] belongs 55 pM.
Consider `CCN1C(=O)N2COCCC2(C)c2cc(-c3cc(NC(=O)c4cccc(C(F)(F)F)c4)cnc3C)ccc21` (stereo not shown) [Example 243], for which the IC50 was 600 pM.

What is called IC50 is the point on the concentration scale where inhibition reaches its midpoint. A higher IC50 goes with lower potency.
